The record followed here is paper PMC5459853, “Cathepsin S inhibition combines control of systemic and peripheral pathomechanisms of autoimmune tissue injury” (Scientific Reports, 2017).

Broadly, the IC50 is the point on the concentration scale where inhibition reaches its midpoint. By Ki is commonly meant a measure of affinity in units of concentration, obtained from inhibition or displacement. The low end stands for tighter binding, the high end for weaker binding.

Holding throughout (assay type): biochemical
Test [1] deals with T1, Human Cat-K (Homo sapiens, UniProt P43235).
T1 sequence (P43235 115-329): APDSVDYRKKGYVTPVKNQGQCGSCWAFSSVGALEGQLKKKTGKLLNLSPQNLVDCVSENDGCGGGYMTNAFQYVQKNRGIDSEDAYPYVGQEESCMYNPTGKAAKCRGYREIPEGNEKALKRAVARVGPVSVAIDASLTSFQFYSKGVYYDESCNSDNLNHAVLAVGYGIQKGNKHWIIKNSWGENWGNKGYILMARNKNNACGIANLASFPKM
The experiment in a line: Enzymatic isoform-selectivity assay, Cat-K. As to the method:
(§1) RO5459072 was provided by F. Hoffmann-La Roche, Ltd., Basel, Switzerland. It is a competitive inhibitor of the active site of Cat-S and its nitrile function allows covalent reversible inhibition of Cat-S. The synthesis of RO5459072 has been described in WO 2010121918 and WO 2013068434. Recombinant cathepsins were produced in-house or were purchased from commercial vendors. Initial enzymatic assays to determine isoform-selectivity in vitro were performed as previously described, [23]. […] For this the Cat-S-dependent hydrolysis of the fluorogenic substrate Z-Phe-Arg-AMC (Sigma Aldrich) was followed at various inhibitor concentrations. The active fraction of Cat-S was detemined as 70% with a HPLC assay measuring modification of Cat-S with the covalent inhibitor LHVS. The buffer (100 mM potassium phosphate, 50 mM NaCl, 5 mM EDTA, 5 mM TCEP, pH 6) was thoroughly degassed prior to perfoming measurements to prevent oxidation of the catalytic cystein residue by dissolved oxygen. For the Ki-determination the substrate was employed at 10 µM = KM. All kinetic measurements were performad on a SFM-3000 stopped-flow instrument (Bio-Logic Science Instruments) and data were analyzed with GraphPad Prism v5.

The target in test [2] is Human Cat-S (Homo sapiens, UniProt P25774). The experiment in a line: Tight-binding kinetic analysis, Z-Phe-Arg-AMC hydrolysis, Morrison equation. As to conditions: 10 µM Z-Phe-Arg-AMC (= KM), 10 nM Cat-S, pH 6. How it is done:
as §1, with “The buffer (100 mM potassium phosphate, 50 mM NaCl, 5 mM EDTA, 5 mM TCEP, pH 6) was thoroughly degassed prior to perfoming measurements to prevent oxidation of the catalytic cystein residue by dissolved oxygen. For the Ki-determination the substrate was employed at 10 µM = KM.” left out, “v5. […]” for “v5.”
active Cat-S converged to [E]0 = 6.9 nM). […] (E) Pharmacodynamics of R05459072 was determined in C57Bl6 mice with increasing amounts of compound as single dose. […]
Supplementary figure 3. […] Plasma levels of IgG1 (A), IgG2a (B), and IgG2b (C) were determined by ELISA at different time points from the initiation (week 11) to the end of treatment (week 19). Data are expressed as means ± SEM (n=8 to 10 in […]

Test [3] concerns the target Mouse Cat-S (Mus musculus, UniProt O70370). The experiment in a line: Enzymatic isoform-selectivity assay, mouse Cat-S. As to conditions: read-out: apparent IC50, murine Cat-S. As to the method: as §1

Human Cat-S, sequence (P25774 115-331): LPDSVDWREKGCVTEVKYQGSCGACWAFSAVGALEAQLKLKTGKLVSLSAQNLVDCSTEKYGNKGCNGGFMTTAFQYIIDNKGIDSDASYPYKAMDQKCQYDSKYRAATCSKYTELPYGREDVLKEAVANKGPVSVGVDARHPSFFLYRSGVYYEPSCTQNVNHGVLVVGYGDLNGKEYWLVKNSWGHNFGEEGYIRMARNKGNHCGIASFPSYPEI

In the case of `Cn1cc(-c2ccc(S(=O)(=O)[C@@H]3C[C@@H](C(=O)NC4(C#N)CC4)N(C(=O)C4(C(F)(F)F)CC4)C3)c(C(F)(F)F)c2)cn1` [RO5459072], the IC50 was more than 1000 nM in test [1] and 0.3 nM in test [3]. Further, the “IC50, Human Cat-K” value in test [1] is “No sub-micro molar inhibition”. For the same compound, the Ki in test [2] amounted to 0.066 ± 0.025 nM.
